# Measured values as given in US20170291958A1, “Compositions and Methods For the Modulation of Ras Proteins” (NEW YORK UNIVERSITY, priority 2016, published 2017).
# Entries after “also recorded” stand apart in the source; their conditions may differ.
# Experiments:
# Type in all cases: cell-based
# [1] = system: ZEB1/TCF8, ZO-1 expression in MiaPaCa-2 cells; assay: Immunoblot of migration/EMT gene products in MiaPaCa-2 cells
# Procedure: (§1) FIGS. 7A-7E. SUMO inhibitor blocks migration of pancreatic cancer cells with KRASV12 mutation. (FIG. 7A) MiaPaCa-2 cells transfected with various KRAS expression constructs or the vector as indicated for 24 h. A GFP-expressing plasmid was used for co-transfection. Transfected cells were then used for wound-healing assays as described in Methods. Representative images of the assay and GFP expression are shown. (FIG. 7B) Both BxPC-3 and MiaPaCa-2 cells were employed for wound-healing assays. Cells with open scratches were treated with various concentrations of 2-D08 for 18 h. Representative images of cells before and after recovery in the presence of 2-D08 for 18 h are shown. (FIG. 7C & FIG. 7D) Data were summarized from experiments as shown in A and B, respectively. (FIG. 7E) MiaPaCa-2 cells treated with or without 2-D08 were lysed and equal amounts of cell lysates were blotted with antibodies to N-Cadherin, ZEB1/TCF8, ZO-1, PARP-1 and B-actin, respectively.
# (§2) RAS proteins were the first, and remain the best-studied, oncoproteins. However, to date no compounds that target RAS have been approved for clinic applications for cancer treatment. As a proof-of-principle study, we next determined whether 2-D08 that blocks RAS sumoylation (FIG. 2A) would suppress tumor cell migration in a KRAS-dependent manner.
# Total cell lysates were prepared in a buffer [50 mM Tris-HCl (pH 7.5), 150 mM NaCl, 1% IGEPAL, 0.1% SDS, and 0.5% sodium deoxycholate] supplemented with a mixture of protease and phosphatase inhibitors. HEK293T Tet-on cells were engineered to express KRASV12 or KRASV12/42R mutants in the presence of doxycycline. At various times post addition of doxycycline, cells were collected and lysed in the same buffer as above. Protein concentrations were measured using the bicinchoninic acid protein assay reagent kit (Pierce Chemical Co). Equal amounts of protein lysates from various samples were used for SDS-PAGE analysis followed by immunoblotting. […]
# KRAS sumoylation = KRAS sumoylation in transfected MiaPaCa-2 cells (Flag immunoprecipitation, HA blot); conditions: MiaPaCa-2 cells transfected with Flag-KRAS and HA-SUMO3, treated 18 h (FIG. 2A)
# Procedure: FIGS. 2A-2E. Lysine 42 is a primary site for sumoylation. (FIG. 2A) MiaPaCa-2 cells were transfected with Flag-KRAS and HA-SUMO3 expression constructs for 24 h and then treated with or without 2-D08 for 18 h. Cells were then lysed and equal amounts of the lysates were immunoprecipitated with the anti-Flag antibody. Flag precipitates, along with lysate inputs, were blotted with antibodies to HA and Flag, respectively. (FIG. 2B) HEK293T cells were co-transfected with plasmid constructs expressing Flag-KRAS, HA-SUMO3, and SENP isoforms as indicated. Equal amounts of protein lysates were immunoprecipitated with the anti-Flag antibody. Flag immunoprecipitates were immunoblotted with antibodies to Flag or HA. […]
# Total cell lysates were prepared in a buffer [50 mM Tris-HCl (pH 7.5), 150 mM NaCl, 1% IGEPAL, 0.1% SDS, and 0.5% sodium deoxycholate] supplemented with a mixture of protease and phosphatase inhibitors. […] Protein concentrations were measured using the bicinchoninic acid protein assay reagent kit (Pierce Chemical Co). […]
# HEK-293T cells were lysed in TBSN buffer [20 mM Tris-Cl (pH 8.0), 150 mM NaCl, 0.5% NP-40, 5 mM EGTA, 1.5 mM EDTA, 0.5 mM Na3VO4, and […]-Glycerol phosphate]. […] After incubation, proteins bound to each resin were washed extensively with the binding buffer, eluted in the SDS-PAGE sample buffer, and analyzed by SDSPAGE.
# MiaPaCa-2 cells = assay: Wound-healing assay, MiaPaCa-2 cells; conditions: MiaPaCa-2 cells (KRASV12), various concentrations, 18 h (FIG. 7B, 7D)
# Procedure: as §1
# as §2, with “manner. […]” for “manner.”
# BxPC-3 cells = assay: Wound-healing assay, BxPC-3 cells; conditions: BxPC-3 cells that harbor no KRAS mutation, various concentrations, 18 h (FIG. 7B, 7D)
# Procedure: as §1
# as §2, with “manner. […]” for “manner.”
# [2] = MiaPaCa-2 cells, immunoblot (FIG. 7E)
smiles,measurement,setting,value
"O=c1cc(-c2ccc(O)c(O)c2O)oc2ccccc12 [2-D08, 2-(2,3,4-Trihydroxyphenyl)-4H-chromen-4-one]",expression of ZEB1/TCF8,[1]; [2],suppressed expression of ZEB1/TCF8
same,expression of ZO-1,[1]; [2],promoted expression of ZO-1
same,expression of genes involved in EMT,[1]; pancreatic cancer cells with KRASV12 (FIG. 7),suppresses expression of genes involved in EMT
same,KRAS sumoylation,KRAS sumoylation,blocked KRAS sumoylation in a concentration-dependent manner
same,cell migration (wound healing),MiaPaCa-2 cells,blocked MiaPaCa-2 cell migration in a concentration-dependent manner; also recorded: reduces migration rate of pancreatic cancer cells with KRASV12 in a concentration-dependent manner
same,cell migration (wound healing),BxPC-3 cells,did not have an effect on inhibiting cell migration
